Reference: paper PMC6979384, “Characterization of the plant homeodomain (PHD) reader family for their histone tail interactions” (Epigenetics & Chromatin, 2020)

How the values were obtained:
Test in all cases: Histone peptide microarray
Type in all cases: binding, human
ING5 = conditions: GST-tagged ING5; sheet Array Heatmap; each array performed twice, total n = 4
Excerpt: (§1) To more comprehensively define the histone interactions of the 31 PHD readers identified from the domain microarray analyses, we probed each on an alternate microarray platform containing a library of 293 synthetic histone peptides with single or combinatorial PTMs (Additional file 2: Figure S4 and Additional file 3: Table S2).
(§2) The 31 GST-tagged PHD readers identified in the PHD finger domain array were expressed and purified as previously. Histone peptide arrays and peptide pulldown assays were conducted as recently described (specifically, the optimized protocol from Petell et al. for the former).
(§3) Supplementary file 13072_2020_328_MOESM3_ESM.xlsx: Additional file 3: Table S2. […] Excel Tab Peptide List is a compiled list of the entire 293 histone peptide library with amino acid sequence ranges. […] Each number corresponds to the peptide number designated in Peptide List. Excel Tab Average Signals is a compiled set of binding data: chromatin reader at 0.5 μM vs. entire 293 peptide library. Data is presented as the average and standard deviation of 4 replicates. The average signals are colored to indicate signal intensity with green being strong and white being weak/low. […] Key: red= stronger relative binding; blue = weaker relative binding. Excel Tab Array info summary is a table summarizing the domains, sequence coverage, array signal range, and noise for each of the GST-tagged readers assayed on the peptide microarrays.

SP140L = conditions: GST-tagged SP140L; sheet Array Heatmap; each array performed twice, total n = 4
Excerpt: as §1, §2, §3

PHF21A = conditions: GST-tagged PHF21A; sheet Array Heatmap; each array performed twice, total n = 4
Excerpt: as §1, §2, §3

ING1 = conditions: GST-tagged ING1; sheet Array Heatmap; each array performed twice, total n = 4
Excerpt: as §1, §2, §3

MLL5 = conditions: GST-tagged MLL5; sheet Array Heatmap; each array performed twice, total n = 4
Excerpt: as §1, §2, §3

KDM5B (3) = conditions: GST-tagged KDM5B (3); sheet Array Heatmap; each array performed twice, total n = 4
Excerpt: as §1, §2, §3

PHF23 = conditions: GST-tagged PHF23; sheet Array Heatmap; each array performed twice, total n = 4
Excerpt: as §1, §2, §3

KDM5A (1) = conditions: GST-tagged KDM5A (1); sheet Array Heatmap; each array performed twice, total n = 4
Excerpt: as §1, §2, §3

KDM5B (1) = conditions: GST-tagged KDM5B (1); sheet Array Heatmap; each array performed twice, total n = 4
Excerpt: as §1, §2, §3

TAF3 = conditions: GST-tagged TAF3; sheet Array Heatmap; each array performed twice, total n = 4
Excerpt: as §1, §2, §3

PHF2 = conditions: GST-tagged PHF2; sheet Array Heatmap; each array performed twice, total n = 4
Excerpt: as §1, §2, §3

PHRF1 (RP) = conditions: GST-tagged PHRF1 (RP); sheet Array Heatmap; each array performed twice, total n = 4
Excerpt: as §1, §2, §3

MORC3 (CW) = conditions: GST-tagged MORC3 (CW = CW-type Zn-finger); sheet Array Heatmap; each array performed twice, total n = 4
Excerpt: as §1, §2, §3

ING3 = conditions: GST-tagged ING3; sheet Array Heatmap; each array performed twice, total n = 4
Excerpt: as §1, §2, §3

CHD5 (PCC) = conditions: GST-tagged CHD5 (PCC = PHD + Dual Chromodomain); sheet Array Heatmap; each array performed twice, total n = 4
Excerpt: as §1, §2, §3

DIDO1 = conditions: GST-tagged DIDO1; sheet Array Heatmap; each array performed twice, total n = 4
Excerpt: as §1, §2, §3

AIRE (PP) = conditions: GST-tagged AIRE (PP); sheet Array Heatmap; each array performed twice, total n = 4
Excerpt: as §1, §2, §3

ING2 = conditions: GST-tagged ING2; sheet Array Heatmap; each array performed twice, total n = 4
Excerpt: as §1, §2, §3

BPTF (PB) = conditions: GST-tagged BPTF (PB = PHD + Bromodomain); sheet Array Heatmap; each array performed twice, total n = 4
Excerpt: as §1, §2, §3

CHD4 (PPCC) = conditions: GST-tagged CHD4 (PPCC = Dual PHD + Dual Chromodomain); sheet Array Heatmap; each array performed twice, total n = 4
Excerpt: as §1, §2, §3

PHF8 = conditions: GST-tagged PHF8; sheet Array Heatmap; each array performed twice, total n = 4
Excerpt: as §1, §2, §3

KDM7A = conditions: GST-tagged KDM7A; sheet Array Heatmap; each array performed twice, total n = 4
Excerpt: as §1, §2, §3

KDM5A (3) = conditions: GST-tagged KDM5A (3); sheet Array Heatmap; each array performed twice, total n = 4
Excerpt: as §1, §2, §3

RAG2 = conditions: GST-tagged RAG2; sheet Array Heatmap; each array performed twice, total n = 4
Excerpt: as §1, §2, §3

ING4 = conditions: GST-tagged ING4; sheet Array Heatmap; each array performed twice, total n = 4
Excerpt: as §1, §2, §3

DPF2 (PPC2W2) = conditions: GST-tagged DPF2 (PPC2W2 = Dual PHD + C2W2-type Zn-finger); sheet Array Heatmap; each array performed twice, total n = 4
Excerpt: as §1, §2, §3

KDM4C (TTP) = conditions: GST-tagged KDM4C (TTP = Tandem Tudor domain + PHD); sheet Array Heatmap; each array performed twice, total n = 4
Excerpt: as §1, §2, §3

TRIM66 (PB) = conditions: GST-tagged TRIM66 (PB = PHD + Bromodomain); sheet Array Heatmap; each array performed twice, total n = 4
Excerpt: as §1, §2, §3

BAZ2B = conditions: GST-tagged BAZ2B; sheet Array Heatmap; each array performed twice, total n = 4
Excerpt: as §1, §2, §3

PHF13 = conditions: GST-tagged PHF13; sheet Array Heatmap; each array performed twice, total n = 4
Excerpt: as §1, §2, §3

CHD5 (PPCC) = conditions: GST-tagged CHD5 (PPCC = Dual PHD + Dual Chromodomain); sheet Array Heatmap; each array performed twice, total n = 4
Excerpt: as §1, §2, §3

H3K4me3 + S10p: H3 1-20
Array Heatmap signal (histone peptide microarray) (ING5): 0.452
Array Heatmap signal (histone peptide microarray) (SP140L): 0.3516
Array Heatmap signal (histone peptide microarray) (PHF21A): 0.4924
Array Heatmap signal (histone peptide microarray) (ING1): 0.7399
Array Heatmap signal (histone peptide microarray) (MLL5): 0.8699
Array Heatmap signal (histone peptide microarray) (KDM5B (3)): 0.6326
Array Heatmap signal (histone peptide microarray) (PHF23): 0.7051
Array Heatmap signal (histone peptide microarray) (KDM5A (1)): 0.4961
Array Heatmap signal (histone peptide microarray) (KDM5B (1)): 0.7367
Array Heatmap signal (histone peptide microarray) (TAF3): 0.4497
Array Heatmap signal (histone peptide microarray) (PHF2): 0.6926
Array Heatmap signal (histone peptide microarray) (PHRF1 (RP)): 0.4961
Array Heatmap signal (histone peptide microarray) (MORC3 (CW)): 0.8974
Array Heatmap signal (histone peptide microarray) (ING3): 0.5974
Array Heatmap signal (histone peptide microarray) (CHD5 (PCC)): 0.823
Array Heatmap signal (histone peptide microarray) (DIDO1): 0.8088
Array Heatmap signal (histone peptide microarray) (AIRE (PP)): 0.4865
Array Heatmap signal (histone peptide microarray) (ING2): 0.7902
Array Heatmap signal (histone peptide microarray) (BPTF (PB)): 0.4763
Array Heatmap signal (histone peptide microarray) (CHD4 (PPCC)): 0.5979
Array Heatmap signal (histone peptide microarray) (PHF8): 0.7298
Array Heatmap signal (histone peptide microarray) (KDM7A): 0.6944
Array Heatmap signal (histone peptide microarray) (KDM5A (3)): 0.9343
Array Heatmap signal (histone peptide microarray) (RAG2): 0.5128
Array Heatmap signal (histone peptide microarray) (ING4): 0.5113
Array Heatmap signal (histone peptide microarray) (DPF2 (PPC2W2)): 0.6728
Array Heatmap signal (histone peptide microarray) (KDM4C (TTP)): 0.6416
Array Heatmap signal (histone peptide microarray) (TRIM66 (PB)): 0.6387
Array Heatmap signal (histone peptide microarray) (BAZ2B): 0.4888
Array Heatmap signal (histone peptide microarray) (PHF13): 0.6968

H3K4me1 + K9ac + K14ac + K18ac: H3 1-20
Array Heatmap signal (histone peptide microarray) (ING5): 0.3909
Array Heatmap signal (histone peptide microarray) (PHF21A): 0.4842
Array Heatmap signal (histone peptide microarray) (ING1): 0.5616
Array Heatmap signal (histone peptide microarray) (MLL5): 0.5474
Array Heatmap signal (histone peptide microarray) (KDM5B (3)): 0.5937
Array Heatmap signal (histone peptide microarray) (PHF23): 0.5995
Array Heatmap signal (histone peptide microarray) (KDM5A (1)): 0.5061
Array Heatmap signal (histone peptide microarray) (KDM5B (1)): 0.6974
Array Heatmap signal (histone peptide microarray) (TAF3): 0.2961
Array Heatmap signal (histone peptide microarray) (PHF2): 0.5275
Array Heatmap signal (histone peptide microarray) (PHRF1 (RP)): 0.6901
Array Heatmap signal (histone peptide microarray) (MORC3 (CW)): 0.6558
Array Heatmap signal (histone peptide microarray) (ING3): 0.5358
Array Heatmap signal (histone peptide microarray) (CHD5 (PCC)): 0.872
Array Heatmap signal (histone peptide microarray) (DIDO1): 0.6756
Array Heatmap signal (histone peptide microarray) (AIRE (PP)): 0.4902
Array Heatmap signal (histone peptide microarray) (ING2): 0.6379
Array Heatmap signal (histone peptide microarray) (BPTF (PB)): 0.3783
Array Heatmap signal (histone peptide microarray) (CHD4 (PPCC)): 0.5742
Array Heatmap signal (histone peptide microarray) (PHF8): 0.4393
Array Heatmap signal (histone peptide microarray) (KDM7A): 0.3735
Array Heatmap signal (histone peptide microarray) (KDM5A (3)): 0.582
Array Heatmap signal (histone peptide microarray) (RAG2): 0.2881
Array Heatmap signal (histone peptide microarray) (ING4): 0.4842
Array Heatmap signal (histone peptide microarray) (DPF2 (PPC2W2)): 0.8362
Array Heatmap signal (histone peptide microarray) (KDM4C (TTP)): 0.5283
Array Heatmap signal (histone peptide microarray) (TRIM66 (PB)): 0.6139
Array Heatmap signal (histone peptide microarray) (CHD5 (PPCC)): 0.5902
Array Heatmap signal (histone peptide microarray) (BAZ2B): 0.6125
Array Heatmap signal (histone peptide microarray) (PHF13): 0.6456
